Tests used:
[1] = test system: Plasmodium falciparum Dd2 asexual blood stage parasites; assay: microbe, parasite or virus in culture; parameters: species or system Plasmodium falciparum Dd2 in human erythrocytes; single determination (one 11-point concentration-response curve); details: Plasmodium falciparum, DD2, Erythrocyte, 72 h; read-out: AC50
in vitro = details: human
[2] = HepG2-A16-CD81EGFP cells, uninfected

| Structure (SMILES) | AC50 [1] [nM] | viability at 48 h, 1 µM (in vitro; [2]) [%] | viability at 48 h, 3 µM (in vitro; [2]) [%] | viability at 48 h (in vitro; [2]) [%] | viability at 66 h (in vitro; [2]) [%] | viability at 66 h (in vitro) [%] |
| --- | --- | --- | --- | --- | --- | --- |
| Cc1ccc2sc(N3CCN(C(=O)c4ccc([N+](=O)[O-])o4)CC3)nc2c1C [MLS001234068-01] | 5310 | 111 | 105 |  |  |  |
| O=C(Nc1ccc(N2CCCCC2)c(Cl)c1)c1nnc[nH]1 [MLS000035389-01] | 4730 | 101 | 99 |  |  |  |
| CCc1cccc2sc(N3CCN(C(=O)c4ccc([N+](=O)[O-])o4)CC3)nc12 [MLS001234237-01] | 1060 | 106 | 115 |  |  |  |
| Cc1ccc(S(=O)(=O)c2nnn3c2nc(N2CCN(c4ccccn4)CC2)c2ccccc23)cc1 [MLS001124278-01] | 7500 | 98.6 |  | 98.6 |  |  |
| O=C(Nc1ccc(C2=NCCN2)cc1)c1ccc(C(=O)Nc2ccc(C3=NCCN3)cc2)c([N+](=O)[O-])c1 [MLS000737369-01] | 237 | 94 | 85 |  |  |  |
| Cc1ccccc1NC(=O)c1cc(C(=O)c2cc(Cl)ccc2O)cn(-c2ccccc2C)c1=O [MLS000374594-01] | 376 | 98 | 93 |  |  |  |
| CCOC(=O)c1c(CN(C)C)n(-c2ccc(C)cc2)c2cc(Br)c(O)cc12 [MLS000705141-01] | 4220 | 101 | 101 |  |  |  |
| CCN1CCC(Nc2ccnc3cc(Cl)ccc23)CC1 [MLS000737411-01] | 188 | 99 | 100 |  |  |  |
| C=C(C)CSc1nc2sc3c(c2c(=O)n1C1CCCCC1)CCN(C)C3 [MLS000779440-01] | 2370 | 98 | 91 |  |  |  |
| CCCc1cc(=O)oc2cc(C)cc(OCC(=O)NC3CC3)c12 [MLS001159103-01] | 4730 | 121 | 104 |  |  |  |
| CCCn1c2c(c(=N)c3c1CCC3)CCCC2 [MLS000702605-01] | 10600 |  |  |  | 93.8 |  |
| CC(CCc1ccccc1)NCC(O)c1cccc([N+](=O)[O-])c1 (centres unmarked) [MLS000712395-01] | 473 | 104 | 106 |  |  |  |
| O=S(=O)(c1ccc2ccccc2c1)N1CCN(C(S)=Nc2ccc(F)c(Cl)c2)CC1 [MLS000394708-01] | 1060 | 111 | 98 |  |  |  |
| COc1ccc(N2/C(=C/C(C)=O)NC(=O)c3c(C)cc(C)nc32)cc1 [MLS000088720-01] | 3350 |  |  |  | 103 |  |
| O=C(NCCCN1CCCC1)c1ccc2c(c1)N([S+](=O)([O-])c1ccccc1F)CC2 [NCGC00430450-01] | 9440 |  |  |  | 97.4 |  |
| Cc1ccc(NC(=O)c2ccc(NCCCN3CCC(C)CC3)c([N+](=O)[O-])c2)cc1F [MLS000689412-01] | 6680 | 106 | 104 |  |  |  |
| COc1ccc(CCn2c(=N)c(C(=O)NC3CCCC3)cc3c(=O)n4cccc(C)c4nc32)cc1 [MLS001147827-01] | 750 |  |  |  | 94.5 |  |
| CCOC(=O)c1c(C)[nH]c(C(=O)CSc2nnc(C3CC3)n2N)c1C [MLS000536141-01] | 1500 | 92 | 89 |  |  |  |
| COc1cc(O)c(C(CCN2CCCC(C)C2)c2cc(OC)c(OC)c(OC)c2)c(OC)c1 (centres unmarked) [MLS000879467-01] | 1880 | 90 | 88 |  |  |  |
| O=C(c1cnn2c(C(F)F)cc(-c3ccccc3)nc12)N1CCCCC1c1cccnc1 (centres unmarked) [MLS000728797-01] | 8410 | 102 |  | 102 |  |  |
| COc1cccc(OC)c1C(=O)NC(S)=Nc1ccc2c(c1)C(=O)N(C)C2=O [MLS000331897-01] | 944 |  |  |  | 103 |  |
| CCCc1cc(=O)oc2c(C)c(O)c(CN3CCCCC3)cc12 [MLS000081526-01] | 3350 |  |  |  | 104 |  |
| COc1cc2c3nnc(-c4ccc(F)cc4)c-3cn(Cc3ccccc3F)c2cc1OC [MLS000419426-01] | 3760 | 113 | 100 |  |  |  |
| CCSc1nc2sc3c(c2c(=O)n1-c1ccccc1)CCN(C)C3 [MLS001212076-01] | 6680 | 104 | 103 |  |  |  |
| CC(C)CCNC(=O)c1cc(C(=O)c2cc(Br)ccc2O)cn(CCC(C)C)c1=O [MLS000775608-01] | 944 |  |  |  |  | 105 |
| CCCc1cc(=O)oc2cc(C)cc(OC(C)C(=O)NCC(O)c3ccccc3)c12 (centres unmarked) [MLS001158075-01] | 841 | 84 | 88 |  |  |  |
| CC1(C)Cc2c(c(N3CCOCC3)nc3snc(Br)c23)CO1 [MLS000071231-01] | 299 | 87 | 86 |  |  |  |
| Nc1cc2ccncc2c2ccccc12 [MLS000766157-01] | 266 | 98 | 92 |  |  |  |
